Source: US7576082B2, “Oxindole derivatives” (Hoffman-La Roche Inc., priority 2005, dated 2009)

Biological target: interaction between p53 and MDM2 proteins (Homo sapiens, UniProt Q00987)
Assay: HTRF assay of inhibition of the interaction between p53 and MDM2 proteins (GST-MDM2 / biotinylated p53 peptide)
Assay type: binding
Details: recombinant GST-tagged MDM2, biotinylated p53 peptide, 37° C. for 1 h
Description: […], the ability of the compounds to inhibit the interaction between p53 and MDM2 proteins was measured.
The ability of the compounds to inhibit the interaction between p53 and MDM2 proteins was measured by an HTRF (homogeneous time-resolved fluorescence) assay in which recombinant GST-tagged MDM2 binds to a peptide that resembles the MDM2-interacting region of p53 (Lane et al.). Binding of GST-MDM2 protein and p53-peptide (biotinylated on its N-terminal end) is registered by the FRET (fluorescence resonance energy transfer) between Europium (Eu)-labeled anti-GST antibody and streptavidin-conjugated Allophycocyanin (APC).
Test is performed in black flat-bottom 384-well plates (Costar) in a total volume of 40 uL containing: 90 nM biotinylate peptide, 160 ng/ml GST-MDM2, 20 nM streptavidin-APC (PerkinElmerWallac), 2 nM Eu-labeled anti-GST-antibody (PerkinElmerWallac), 0.2% bovine serum albumin (BSA), 1 mM dithiothreitol (DTT) and 20 mM Tris-borate saline (TBS) buffer as follows: Add 10 uL of GST-MDM2 (640 ng/ml working solution) in reaction buffer to each well. Add 10 uL diluted compounds (1:5 dilution in reaction buffer) to each well, mix by shaking. Add 20 uL biotinylated p53 peptide (180 nM working solution) in reaction buffer to each well and mix on shaker. Incubate at 37° C. for 1 h. Add 20 uL streptavidin-APC and Eu-anti-GST antibody mixture (6 nM Eu-anti-GST and 60 nM streptavidin-APC working solution) in TBS buffer with 0.2% BSA, shake at room temperature for 30 minutes and read using a TRF-capable plate reader at 665 and 615 nm (Victor 5, Perkin ElmerWallac). If not specified, the reagents were purchased from Sigma Chemical Co.

interaction between p53 and MDM2 proteins, sequence (Q00987 whole entry): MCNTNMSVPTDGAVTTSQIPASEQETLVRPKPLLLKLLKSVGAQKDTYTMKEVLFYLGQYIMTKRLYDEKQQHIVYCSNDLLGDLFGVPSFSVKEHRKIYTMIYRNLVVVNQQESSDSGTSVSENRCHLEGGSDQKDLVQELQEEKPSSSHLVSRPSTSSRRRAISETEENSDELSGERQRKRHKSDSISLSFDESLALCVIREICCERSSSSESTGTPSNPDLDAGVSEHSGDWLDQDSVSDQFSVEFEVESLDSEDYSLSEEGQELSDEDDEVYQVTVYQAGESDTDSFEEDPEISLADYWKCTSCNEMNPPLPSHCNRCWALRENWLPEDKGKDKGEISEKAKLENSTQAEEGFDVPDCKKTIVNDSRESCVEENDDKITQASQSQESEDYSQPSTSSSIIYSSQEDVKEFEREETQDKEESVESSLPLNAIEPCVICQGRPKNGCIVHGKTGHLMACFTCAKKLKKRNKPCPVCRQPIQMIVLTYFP

SMILES: COc1cccc(C2(Cc3cccc(Cl)c3)C(=O)Nc3cc(Cl)ccc32)c1 (racemic) [Example 9, rac-6-Chloro-3-(3-chloro-benzyl)-3-(3-methoxy-phenyl)-1,3-dihydro-indol-2-one]
- IC50: 460 nM

SMILES: COc1cccc(C2(Cc3ccccc3)C(=O)Nc3cc(Cl)ccc32)c1 (racemic) [Example 6C, rac-3-Benzyl-6-chloro-3-(3-methoxy-phenyl)-1,3-dihydro-indol-2-one]
- IC50: 9490 nM

SMILES: COc1cccc([C@]2(Cc3cccc(Cl)c3)C(=O)Nc3cc(Cl)ccc32)c1 (single isomer, unassigned) [Example 13]
- IC50: 280 nM

SMILES: O=C1Nc2cc(Cl)ccc2C1(Cc1ccccc1)C1CCCC1 (racemic) [Example 3C, rac-3-Benzyl-6-chloro-3-cyclopentyl-1,3-dihydro-indol-2-one]
- IC50: 5380 nM
